In patent US12496348B2, “Small molecule target bromo/acetyl proteins and uses thereof” (DANA-FARBER CANCER INSTITUTE, INC., priority 2019, dated 2025):
Like-named read-outs stand apart in the source and are kept apart here.

Tests used:
Type in all cases: cell-based
EP300 = EP300 (Homo sapiens (Human), UniProt Q09472); assay: Western blot for EP300 degradation in Kelly NB cells; settings: 24 hours
Description: (§1) […] Whole cell lysates were collected using ice cold lysis buffer [300 mM NaCl, 50 mM Tris-HCl, pH 7.5, 0.5% Triton X-100, 1% sodium dodecyl sulfate (SDS), 1 mM dithiothreitol (DTT) (Invitrogen™), Roche®'s cOmplete™ protease inhibitor cocktail (1:000), 25 units/mL Benzonase®] and blotted at a protein concentration of 30 μg for EP300 and CBP and 10 μg for histone H3 and H3K27ac. Lysates were also blotted for bromodomain-containing protein 4 (BRD4). Lysates were resolved in NuPAGE™ 3-8% Tris-Acetate polyacrylamide gels (EA03785BOX, Invitrogen™) for EP300 and CBP and Bolt 4-12% Bis-Tris polyacrylamide gels (NW04125BOX, Invitrogen™) for H3 and H3K27ac. Afterwards, gels were transferred to nitrocellulose membranes (LC2001, Invitrogen™). […] Visualization was performed on an Odyssey infrared imaging system (LiCor® Biosciences).

[1] = tested on: Kelly Neuroblastoma cells; assay: ATPlite Luminescence viability assay, Kelly neuroblastoma cells, 72 h; settings: for IC50 values (range in words): Kelly Neuroblastoma cell proliferation; for IC50: Kelly Neuroblastoma cells, ATPlite
Description: Kelly Neuroblastoma cells were seeded at 1,000 cells per well in 384 well, white plates and were treated in a dose-dependent manner for 72 h.

CBP = CBP (Homo sapiens (Human), UniProt Q92793); assay: Western blot for CBP degradation in Kelly NB cells; settings: 24 hours
Description: as §1

H3K27ac = assay: Western blot for H3K27ac levels in Kelly NB cells; settings: 24 hours; for acetylation levels (immunoblot): at 1 μM
Description: Kelly Neuroblastoma cells were seeded at 1,000,000 cells per well in 6 well plates and were treated in a dose-dependent manner for 24 hours. Whole cell lysates were collected using ice cold lysis buffer [300 mM NaCl, 50 mM Tris-HCl, pH 7.5, 0.5% Triton X-100, 1% sodium dodecyl sulfate (SDS), 1 mM dithiothreitol (DTT) (Invitrogen™), Roche®'s cOmplete™ protease inhibitor cocktail (1:000), 25 units/mL Benzonase®] and blotted at a protein concentration of 30 μg for EP300 and CBP and 10 μg for histone H3 and H3K27ac. Lysates were also blotted for bromodomain-containing protein 4 (BRD4). Lysates were resolved in NuPAGE™ 3-8% Tris-Acetate polyacrylamide gels (EA03785BOX, Invitrogen™) for EP300 and CBP and Bolt 4-12% Bis-Tris polyacrylamide gels (NW04125BOX, Invitrogen™) for H3 and H3K27ac. Afterwards, gels were transferred to nitrocellulose membranes (LC2001, Invitrogen™). […] Visualization was performed on an Odyssey infrared imaging system (LiCor® Biosciences).

[2] = biological target: bromodomain-containing protein 4 (BRD4) (Homo sapiens (Human), UniProt O60885); assay: Western blot for BRD4 levels in Kelly NB cells; settings: 24 h, at 1 μM
Description: Kelly Neuroblastoma cells were seeded at 1,000,000 cells per well in 6 well plates and were treated in a dose-dependent manner for 24 hours. Whole cell lysates were collected using ice cold lysis buffer [300 mM NaCl, 50 mM Tris-HCl, pH 7.5, 0.5% Triton X-100, 1% sodium dodecyl sulfate (SDS), 1 mM dithiothreitol (DTT) (Invitrogen™), Roche®'s cOmplete™ protease inhibitor cocktail (1:000), 25 units/mL Benzonase®] and blotted at a protein concentration of 30 μg for EP300 and CBP and 10 μg for histone H3 and H3K27ac. Lysates were also blotted for bromodomain-containing protein 4 (BRD4). Lysates were resolved in NuPAGE™ 3-8% Tris-Acetate polyacrylamide gels (EA03785BOX, Invitrogen™) for EP300 and CBP and Bolt 4-12% Bis-Tris polyacrylamide gels (NW04125BOX, Invitrogen™) for H3 and H3K27ac. Afterwards, gels were transferred to nitrocellulose membranes (LC2001, Invitrogen™). Primary and secondary antibodies used included anti-p300 at 1:500 dilution (ab10485, Abcam®), anti-CBP at 1:500 dilution (D6C5, Cell Signaling Technology®), anti-Actin at 1:5000 dilution (3700S, Cell Signaling Technology®), anti-H3 at 1:1000 dilution (4499S, Cell Signaling Technology®), anti-H3K27ac at 1:1000 dilution (ab4729, Abcam®), IRDye®800 goat anti-rabbit at 1:5000 dilution (926-32211, LiCor® Biosciences) and IRDye®680 goat anti-mouse at 1:5000 dilution (926-68070, LiCor®). Visualization was performed on an Odyssey infrared imaging system (LiCor® Biosciences).

[3] = class symbols, read-out: IC50 of inventive bispecific compounds

Chain of CBP (Q92793 whole entry): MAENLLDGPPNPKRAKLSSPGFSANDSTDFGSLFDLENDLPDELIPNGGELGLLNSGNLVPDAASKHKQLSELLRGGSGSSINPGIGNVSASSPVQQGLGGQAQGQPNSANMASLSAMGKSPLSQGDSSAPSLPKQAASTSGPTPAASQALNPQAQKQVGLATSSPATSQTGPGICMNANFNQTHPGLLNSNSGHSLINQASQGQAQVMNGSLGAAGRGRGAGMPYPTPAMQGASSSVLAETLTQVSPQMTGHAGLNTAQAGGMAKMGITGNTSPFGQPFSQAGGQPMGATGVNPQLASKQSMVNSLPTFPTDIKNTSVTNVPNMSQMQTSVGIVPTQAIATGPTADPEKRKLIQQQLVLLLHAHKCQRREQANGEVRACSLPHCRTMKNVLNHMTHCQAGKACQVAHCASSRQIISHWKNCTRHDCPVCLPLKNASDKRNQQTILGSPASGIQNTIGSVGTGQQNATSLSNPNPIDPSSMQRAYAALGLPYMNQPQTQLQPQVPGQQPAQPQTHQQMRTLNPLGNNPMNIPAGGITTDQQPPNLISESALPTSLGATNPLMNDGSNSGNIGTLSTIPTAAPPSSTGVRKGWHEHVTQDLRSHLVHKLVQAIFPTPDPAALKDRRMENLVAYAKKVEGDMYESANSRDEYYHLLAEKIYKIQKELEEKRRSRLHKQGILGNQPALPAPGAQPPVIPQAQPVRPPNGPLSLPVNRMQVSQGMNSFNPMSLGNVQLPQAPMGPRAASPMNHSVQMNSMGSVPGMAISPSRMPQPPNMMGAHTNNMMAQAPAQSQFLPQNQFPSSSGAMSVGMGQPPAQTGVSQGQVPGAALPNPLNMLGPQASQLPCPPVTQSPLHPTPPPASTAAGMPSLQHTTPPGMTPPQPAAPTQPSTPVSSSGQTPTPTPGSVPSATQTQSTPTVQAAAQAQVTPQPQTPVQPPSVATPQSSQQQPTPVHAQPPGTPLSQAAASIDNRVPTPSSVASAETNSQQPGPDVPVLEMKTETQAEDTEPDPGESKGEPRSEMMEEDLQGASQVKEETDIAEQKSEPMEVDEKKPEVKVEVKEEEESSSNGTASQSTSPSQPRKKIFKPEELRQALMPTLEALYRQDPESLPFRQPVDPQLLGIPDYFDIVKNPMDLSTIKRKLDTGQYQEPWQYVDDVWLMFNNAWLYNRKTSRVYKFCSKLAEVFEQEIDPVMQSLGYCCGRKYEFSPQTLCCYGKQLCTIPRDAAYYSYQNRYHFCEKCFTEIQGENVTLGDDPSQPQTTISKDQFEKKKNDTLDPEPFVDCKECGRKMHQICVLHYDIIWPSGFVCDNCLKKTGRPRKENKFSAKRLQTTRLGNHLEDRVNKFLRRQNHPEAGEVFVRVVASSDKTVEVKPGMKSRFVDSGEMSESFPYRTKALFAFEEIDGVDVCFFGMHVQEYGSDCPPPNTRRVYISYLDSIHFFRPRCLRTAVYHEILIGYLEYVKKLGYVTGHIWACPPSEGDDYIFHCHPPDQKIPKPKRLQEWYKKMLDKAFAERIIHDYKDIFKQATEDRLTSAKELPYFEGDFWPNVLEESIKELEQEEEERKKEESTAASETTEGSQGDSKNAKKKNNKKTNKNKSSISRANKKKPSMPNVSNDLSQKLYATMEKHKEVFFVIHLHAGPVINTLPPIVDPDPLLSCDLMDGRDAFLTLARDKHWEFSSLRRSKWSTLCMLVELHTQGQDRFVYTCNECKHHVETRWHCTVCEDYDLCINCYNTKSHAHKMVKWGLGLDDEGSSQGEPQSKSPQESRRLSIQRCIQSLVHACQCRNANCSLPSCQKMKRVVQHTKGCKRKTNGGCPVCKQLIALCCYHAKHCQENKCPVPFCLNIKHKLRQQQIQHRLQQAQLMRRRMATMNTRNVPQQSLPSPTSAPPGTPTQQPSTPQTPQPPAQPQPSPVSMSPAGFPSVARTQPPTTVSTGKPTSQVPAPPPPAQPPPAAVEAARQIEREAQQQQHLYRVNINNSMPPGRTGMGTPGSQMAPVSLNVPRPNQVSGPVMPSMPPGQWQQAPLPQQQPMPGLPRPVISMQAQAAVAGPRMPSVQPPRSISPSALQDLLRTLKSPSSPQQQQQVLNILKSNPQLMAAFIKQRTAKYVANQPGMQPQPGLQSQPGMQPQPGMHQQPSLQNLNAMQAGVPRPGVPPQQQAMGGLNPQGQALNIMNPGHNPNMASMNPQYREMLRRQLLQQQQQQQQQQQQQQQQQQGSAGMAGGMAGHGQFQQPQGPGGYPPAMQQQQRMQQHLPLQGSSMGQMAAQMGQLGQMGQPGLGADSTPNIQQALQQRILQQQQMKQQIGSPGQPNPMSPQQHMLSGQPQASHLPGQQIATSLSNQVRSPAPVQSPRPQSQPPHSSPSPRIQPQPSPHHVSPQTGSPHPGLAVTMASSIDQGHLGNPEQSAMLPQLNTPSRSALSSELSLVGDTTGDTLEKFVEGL
Chain of EP300 (Q09472 whole entry): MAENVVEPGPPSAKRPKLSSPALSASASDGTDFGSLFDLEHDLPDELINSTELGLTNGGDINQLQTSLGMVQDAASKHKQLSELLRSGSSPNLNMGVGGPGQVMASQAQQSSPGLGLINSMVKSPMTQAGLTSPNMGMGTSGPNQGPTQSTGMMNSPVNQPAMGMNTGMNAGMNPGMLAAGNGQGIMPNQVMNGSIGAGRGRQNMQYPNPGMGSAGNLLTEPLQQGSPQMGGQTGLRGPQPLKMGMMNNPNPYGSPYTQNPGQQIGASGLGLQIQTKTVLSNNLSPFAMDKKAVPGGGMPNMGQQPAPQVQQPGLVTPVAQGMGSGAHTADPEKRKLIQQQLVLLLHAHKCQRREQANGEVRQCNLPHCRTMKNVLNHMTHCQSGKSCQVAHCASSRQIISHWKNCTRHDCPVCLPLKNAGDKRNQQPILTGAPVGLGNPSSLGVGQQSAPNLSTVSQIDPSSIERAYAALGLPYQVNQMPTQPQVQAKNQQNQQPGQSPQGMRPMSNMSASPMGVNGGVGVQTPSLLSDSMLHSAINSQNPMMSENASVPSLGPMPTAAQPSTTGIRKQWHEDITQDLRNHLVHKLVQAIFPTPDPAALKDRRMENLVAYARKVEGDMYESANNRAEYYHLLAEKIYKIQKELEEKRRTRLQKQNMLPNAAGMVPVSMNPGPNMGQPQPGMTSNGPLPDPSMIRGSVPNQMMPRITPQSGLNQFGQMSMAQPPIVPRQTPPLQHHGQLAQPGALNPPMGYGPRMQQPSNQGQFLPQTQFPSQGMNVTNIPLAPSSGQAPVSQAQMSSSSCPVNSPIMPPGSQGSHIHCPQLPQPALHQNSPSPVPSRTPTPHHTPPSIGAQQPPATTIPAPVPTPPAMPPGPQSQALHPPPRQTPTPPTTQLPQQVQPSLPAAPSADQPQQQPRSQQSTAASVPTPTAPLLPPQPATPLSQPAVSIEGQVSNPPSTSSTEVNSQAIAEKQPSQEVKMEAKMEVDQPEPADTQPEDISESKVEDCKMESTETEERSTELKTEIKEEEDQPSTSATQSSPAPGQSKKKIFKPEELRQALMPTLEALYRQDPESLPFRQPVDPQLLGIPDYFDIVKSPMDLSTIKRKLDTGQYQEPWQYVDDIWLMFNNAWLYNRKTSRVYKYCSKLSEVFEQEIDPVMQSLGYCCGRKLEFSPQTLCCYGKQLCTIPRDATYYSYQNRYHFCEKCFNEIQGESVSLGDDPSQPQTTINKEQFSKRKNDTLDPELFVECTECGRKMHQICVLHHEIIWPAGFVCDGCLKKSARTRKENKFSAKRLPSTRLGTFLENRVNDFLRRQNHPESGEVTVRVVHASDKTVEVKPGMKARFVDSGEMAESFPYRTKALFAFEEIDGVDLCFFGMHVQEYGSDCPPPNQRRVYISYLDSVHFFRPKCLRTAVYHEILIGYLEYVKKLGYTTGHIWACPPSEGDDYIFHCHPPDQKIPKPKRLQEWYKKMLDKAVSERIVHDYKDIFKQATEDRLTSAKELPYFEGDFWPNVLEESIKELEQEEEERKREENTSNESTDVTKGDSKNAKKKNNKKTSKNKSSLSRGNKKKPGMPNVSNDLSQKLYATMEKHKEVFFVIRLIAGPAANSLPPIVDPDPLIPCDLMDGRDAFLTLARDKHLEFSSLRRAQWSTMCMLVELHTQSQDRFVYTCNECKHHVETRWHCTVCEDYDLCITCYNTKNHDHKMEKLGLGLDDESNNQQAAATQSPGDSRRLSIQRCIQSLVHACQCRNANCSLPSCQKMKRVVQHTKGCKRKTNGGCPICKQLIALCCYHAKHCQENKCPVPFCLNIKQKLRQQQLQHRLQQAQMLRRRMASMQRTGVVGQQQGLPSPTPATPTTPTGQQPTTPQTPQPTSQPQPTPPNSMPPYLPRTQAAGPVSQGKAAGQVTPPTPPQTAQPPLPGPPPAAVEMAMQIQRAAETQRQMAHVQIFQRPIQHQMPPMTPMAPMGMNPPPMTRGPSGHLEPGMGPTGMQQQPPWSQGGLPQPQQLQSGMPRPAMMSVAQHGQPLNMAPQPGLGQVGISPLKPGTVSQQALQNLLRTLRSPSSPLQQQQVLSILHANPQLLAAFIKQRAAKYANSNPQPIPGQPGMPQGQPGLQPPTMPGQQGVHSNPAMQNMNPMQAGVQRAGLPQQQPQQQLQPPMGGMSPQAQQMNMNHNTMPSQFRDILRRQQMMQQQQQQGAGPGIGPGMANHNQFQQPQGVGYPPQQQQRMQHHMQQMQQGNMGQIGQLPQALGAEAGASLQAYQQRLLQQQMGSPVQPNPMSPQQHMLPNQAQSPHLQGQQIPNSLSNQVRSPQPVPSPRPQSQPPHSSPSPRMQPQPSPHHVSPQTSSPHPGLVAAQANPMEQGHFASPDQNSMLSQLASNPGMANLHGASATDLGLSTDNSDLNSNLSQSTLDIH

Cc1noc(C)c1-c1ccc2nc(-c3ccc(N4CCN(C(=O)CCOCCOCCOCCOCCOCCOCCNc5cccc6c5C(=O)N(C5CCC(=O)NC5=O)C6=O)CC4)cc3)c(NC3CCCCC3)n2c1 (centres unmarked) [Compound 3, 4-((21-(4-(4-(3-(cyclohexylamino)-6-(3,5-dimethylisoxazol-4-yl)imidazo[1,2-a]pyridin-2-yl)phenyl)piperazin-1-yl)-21-oxo-3,6,9,12,15,18-hexaoxahenicosyl)amino)-2-(2,6-dioxopiperidin-3-yl)isoindoline-1,3-dione]
P300 degradation (immunoblot) (EP300; at 10 μM): some degradation
IC50 values (range in words) [1]: micromolar and sub-micromolar range
IC50 [1, 3]: 100 to 1000 nM
IC50 ([1]; read-out: IC50): 706 nM
CBP degradation (immunoblot) (CBP; at 10 μM): some degradation

Cc1noc(C)c1-c1ccn2c(NCc3ccccc3)c(-c3ccc(N4CCN(C(=O)COc5cccc6c5C(=O)N(C5CCC(=O)NC5=O)C6=O)CC4)cc3)nc2c1 (centres unmarked) [Compound 7, 4-(2-(4-(4-(3-(benzylamino)-7-(3,5-dimethylisoxazol-4-yl)imidazo[1,2-a]pyridin-2-yl)phenyl)piperazin-1-yl)-2-oxoethoxy)-2-(2,6-dioxopiperidin-3-yl)isoindoline-1,3-dione]
P300 degradation (immunoblot) (EP300; at 1 μM): noticeable degradation
H3K27ac / acetylation levels (immunoblot) (H3K27ac; concentration not given): slight reduction
IC50 values (range in words) [1]: micromolar and sub-micromolar range
IC50 [1, 3]: < 100 nM
IC50 ([1]; read-out: IC50): 33.1 nM
CBP degradation (immunoblot) (CBP; at 1 μM): noticeable degradation

Cc1noc(C)c1-c1ccn2c(NC3CCCCC3)c(CCc3ccc(NC(=O)CCOCCOCCOCCNc4cccc5c4C(=O)N(C4CCC(=O)NC4=O)C5=O)cc3)nc2c1 (centres unmarked) [Compound 8, N-(4-(2-(3-(cyclohexylamino)-7-(3,5-dimethylisoxazol-4-yl)imidazo[1,2-a]pyridin-2-yl)ethyl)phenyl)-3-(2-(2-(2-((2-(2,6-dioxopiperidin-3-yl)-1,3-dioxoisoindolin-4-yl)amino)ethoxy)ethoxy)ethoxy)propanamide]
P300 degradation (immunoblot) (EP300; at 1 μM): noticeable degradation
BRD4 degradation (immunoblot) [2]: observed
acetylation levels (immunoblot) (H3K27ac): reduction
IC50 [1, 3]: 100 to 1000 nM
CBP degradation (immunoblot) (CBP; at 1 μM): noticeable degradation

Cc1noc(C)c1-c1ccn2c(NC3CCCCC3)c(CCc3ccc(NC(=O)CCCCCNc4cccc5c4C(=O)N(C4CCC(=O)NC4=O)C5=O)cc3)nc2c1 (centres unmarked) [Compound 11, N-(4-(2-(3-(cyclohexylamino)-7-(3,5-dimethylisoxazol-4-yl)imidazo[1,2-a]pyridin-2-yl)ethyl)phenyl)-6-((2-(2,6-dioxopiperidin-3-yl)-1,3-dioxoisoindolin-4-yl)amino)hexanamide]
P300 degradation (immunoblot) (EP300; at 1 μM): noticeable degradation
BRD4 degradation (immunoblot) [2]: observed
acetylation levels (immunoblot) (H3K27ac): reduction
IC50 [1, 3]: 100 to 1000 nM
CBP degradation (immunoblot) (CBP; at 1 μM): noticeable degradation

Cc1noc(C)c1-c1ccn2c(NC3CCCCC3)c(CCc3ccc(NC(=O)COc4cccc5c4C(=O)N(C4CCC(=O)NC4=O)C5=O)cc3)nc2c1 (centres unmarked) [Compound 12, N-(4-(2-(3-(cyclohexylamino)-7-(3,5-dimethylisoxazol-4-yl)imidazo[1,2-a]pyridin-2-yl)ethyl)phenyl)-2-((2-(2,6-dioxopiperidin-3-yl)-1,3-dioxoisoindolin-4-yl)oxy)acetamide]
P300 degradation (immunoblot) (EP300; at 1 μM): noticeable degradation
BRD4 degradation (immunoblot) [2]: observed
acetylation levels (immunoblot) (H3K27ac): reduction
IC50 [1, 3]: 1000 to 10000 nM

Cc1noc(C)c1-c1ccc2c(c1)nc(CCc1ccc(NC(=O)CCOCCOCCOCCNc3cccc4c3C(=O)N(C3CCC(=O)NC3=O)C4=O)cc1)n2CC(C)N1CCOCC1 (centres unmarked) [Compound 27, N-(4-(2-(5-(3,5-dimethylisoxazol-4-yl)-1-(2-morpholinopropyl)-1H-benzo[d]imidazol-2-yl)ethyl)phenyl)-3-(2-(2-(2-((2-(2,6-dioxopiperidin-3-yl)-1,3-dioxoisoindolin-4-yl)amino)ethoxy)ethoxy)ethoxy)propanamide]
IC50 [1, 3]: > 10000 nM

Cc1noc(C)c1-c1ccc2c(c1)nc(CCc1ccc(NCCNC(=O)CCCCCNc3cccc4c3C(=O)N(C3CCC(=O)NC3=O)C4=O)cc1)n2CC(C)N1CCOCC1 (centres unmarked) [Compound 28, N-(2-((4-(2-(5-(3,5-dimethylisoxazol-4-yl)-1-(2-morpholinopropyl)-1H-benzo[d]imidazol-2-yl)ethyl)phenyl)amino)ethyl)-6-((2-(2,6-dioxopiperidin-3-yl)-1,3-dioxoisoindolin-4-yl)amino)hexanamide]
IC50 [1, 3]: > 10000 nM

Cc1noc(C)c1-c1ccc2c(c1)nc([C@@H]1CCCC(=O)N1c1ccc(F)c(F)c1)n2[C@H]1CC[C@H](NC(=O)CCCCCCCCCNc2cccc3c2C(=O)N(C2CCC(=O)NC2=O)C3=O)CC1 (stereo partly drawn) [Compound 29, N-((1S,4r)-4-(2-((S)-1-(3,4-difluorophenyl)-6-oxopiperidin-2-yl)-5-(3,5-dimethylisoxazol-4-yl)-1H-benzo[d]imidazol-1-yl)cyclohexyl)-10-((2-(2,6-dioxopiperidin-3-yl)-1,3-dioxoisoindolin-4-yl)amino)decanamide]
IC50 [1, 3]: < 100 nM

Cc1noc(C)c1-c1ccc2c(c1)nc([C@@H]1CCCC(=O)N1c1ccc(F)c(F)c1)n2[C@H]1CC[C@H](NC(=O)CCCCCNc2cccc3c2C(=O)N(C2CCC(=O)NC2=O)C3=O)CC1 (stereo partly drawn) [Compound 30, N-((1S,4r)-4-(2-((S)-1-(3,4-difluorophenyl)-6-oxopiperidin-2-yl)-5-(3,5-dimethylisoxazol-4-yl)-1H-benzo[d]imidazol-1-yl)cyclohexyl)-6-((2-(2,6-dioxopiperidin-3-yl)-1,3-dioxoisoindolin-4-yl)amino)hexanamide]
IC50 [1, 3]: 100 to 1000 nM
